# Tested on: K98450-129-R-PDC multicell spheroids, viability
# Experiment: Anticancer human tumor K98450-129-R-PDC patient-derived colon adenocarcinoma cell line growth inhibition [PI3K]
# Conditions: for IC50: curve of first compound; for viability, T/C: stronger effect = lower value
# Outline: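 Tumor cells were combined with HUVEC and MSCs into spheroids, then dosed with PI3K-inhibitor combinations over half-log ranges capped near clinical Cmax or 10 microM.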
# [1] = second compound 0.00316 µM, first compound 0.0316 µM
# [2] = second compound 0.00316 µM, first compound 0.1 µM
# [3] = second compound 0.00316 µM, first compound 0.316 µM
# [4] = second compound 0.00316 µM, first compound 1 µM
# [5] = second compound 0.01 µM, first compound 0.0316 µM
# [6] = second compound 0.01 µM, first compound 0.1 µM
# [7] = second compound 0.01 µM, first compound 0.316 µM
# [8] = second compound 0.01 µM, first compound 1 µM
# [9] = second compound 0.0316 µM, first compound 0.0316 µM
# [10] = second compound 0.0316 µM, first compound 0.1 µM
# [11] = second compound 0.0316 µM, first compound 0.316 µM
# [12] = second compound 0.0316 µM, first compound 1 µM
# [13] = second compound 0.1 µM, first compound 0.0316 µM
# [14] = second compound 0.1 µM, first compound 0.1 µM
# [15] = second compound 0.1 µM, first compound 0.316 µM
# [16] = second compound 0.1 µM, first compound 1 µM
# [17] = second compound 0.316 µM, first compound 0.0316 µM
# [18] = second compound 0.316 µM, first compound 0.1 µM
# [19] = second compound 0.316 µM, first compound 0.316 µM
# [20] = second compound 0.316 µM, first compound 1 µM
# [21] = second compound 1 µM, first compound 0.0316 µM
# [22] = second compound 1 µM, first compound 0.1 µM
# [23] = second compound 1 µM, first compound 0.316 µM
# [24] = second compound 1 µM, first compound 1 µM
# [25] = second compound 0.0316 µM, first compound 0.00316 µM
# [26] = second compound 0.0316 µM, first compound 0.01 µM
# [27] = second compound 0.1 µM, first compound 0.00316 µM
# [28] = second compound 0.1 µM, first compound 0.01 µM
# [29] = second compound 0.316 µM, first compound 0.00316 µM
# [30] = second compound 0.316 µM, first compound 0.01 µM
# [31] = second compound 1 µM, first compound 0.00316 µM
# [32] = second compound 1 µM, first compound 0.01 µM
# 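Note: spheroids exposed to agents for seven days before read-out.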
smiles,measurement,setting,value
CC(C)NCC(C(=O)N1CCN(c2ncnc3c2C(C)CC3O)CC1)c1ccc(Cl)cc1 (stereo unspecified) + COc1c(OCCCN2CCOCC2)ccc2c3n(c(=NC(=O)c4cnc(N)nc4)nc12)CCN3,IC50,second compound 0.00316 µM,> 10000 nM
same,IC50,second compound 0.01 µM,> 10000 nM
same,IC50,second compound 0.0316 µM,> 10000 nM
same,IC50,second compound 0.1 µM,> 10000 nM
same,IC50,second compound 0.316 µM,> 10000 nM
same,IC50,second compound 1 µM,> 10000 nM
same,"viability, T/C",[1],107%
same,"viability, T/C",[2],95.9%
same,"viability, T/C",[3],115%
same,"viability, T/C",[4],99%
same,"viability, T/C","second compound 0.00316 µM, first compound 3.16 µM",97.4%
same,"viability, T/C","second compound 0.00316 µM, first compound 10 µM",89.8%
same,"viability, T/C",[5],111%
same,"viability, T/C",[6],106%
same,"viability, T/C",[7],99.3%
same,"viability, T/C",[8],98.8%
same,"viability, T/C","second compound 0.01 µM, first compound 3.16 µM",90.6%
same,"viability, T/C","second compound 0.01 µM, first compound 10 µM",93.3%
same,"viability, T/C",[9],94%
same,"viability, T/C",[10],114%
same,"viability, T/C",[11],88.4%
same,"viability, T/C",[12],95.1%
same,"viability, T/C","second compound 0.0316 µM, first compound 3.16 µM",89.8%
same,"viability, T/C","second compound 0.0316 µM, first compound 10 µM",86.2%
same,"viability, T/C",[13],79%
same,"viability, T/C",[14],66.4%
same,"viability, T/C",[15],67%
same,"viability, T/C",[16],73.7%
same,"viability, T/C","second compound 0.1 µM, first compound 3.16 µM",95.4%
same,"viability, T/C","second compound 0.1 µM, first compound 10 µM",82.9%
same,"viability, T/C",[17],69.5%
same,"viability, T/C",[18],73.8%
same,"viability, T/C",[19],58.7%
same,"viability, T/C",[20],65.2%
same,"viability, T/C","second compound 0.316 µM, first compound 3.16 µM",68.9%
same,"viability, T/C","second compound 0.316 µM, first compound 10 µM",66.3%
same,"viability, T/C",[21],54.1%
same,"viability, T/C",[22],49.3%
same,"viability, T/C",[23],55.6%
same,"viability, T/C",[24],45.2%
same,"viability, T/C","second compound 1 µM, first compound 3.16 µM",59.7%
same,"viability, T/C","second compound 1 µM, first compound 10 µM",47.5%
CCN1CCN(Cc2ccc(Nc3ncc(F)c(-c4cc(F)c5nc(C)n(C(C)C)c5c4)n3)nc2)CC1 + COc1c(OCCCN2CCOCC2)ccc2c3n(c(=NC(=O)c4cnc(N)nc4)nc12)CCN3,IC50,second compound 0.00316 µM,> 1000 nM
same,IC50,second compound 0.01 µM,> 1000 nM
same,IC50,second compound 0.0316 µM,> 1000 nM
same,IC50,second compound 0.1 µM,> 1000 nM
same,IC50,second compound 0.316 µM,> 1000 nM
same,IC50,second compound 1 µM,< 3.16 nM
same,"viability, T/C","second compound 0.00316 µM, first compound 0.00316 µM",99.6%
same,"viability, T/C","second compound 0.00316 µM, first compound 0.01 µM",108%
same,"viability, T/C",[1],88.9%
same,"viability, T/C",[2],86.9%
same,"viability, T/C",[3],87.5%
same,"viability, T/C",[4],79.4%
same,"viability, T/C","second compound 0.01 µM, first compound 0.00316 µM",117%
same,"viability, T/C","second compound 0.01 µM, first compound 0.01 µM",93.7%
same,"viability, T/C",[5],81.6%
same,"viability, T/C",[6],94%
same,"viability, T/C",[7],71.1%
same,"viability, T/C",[8],75.8%
same,"viability, T/C",[25],78.3%
same,"viability, T/C",[26],64.5%
same,"viability, T/C",[9],81.9%
same,"viability, T/C",[10],66.8%
same,"viability, T/C",[11],72.8%
same,"viability, T/C",[12],110%
same,"viability, T/C",[27],71.6%
same,"viability, T/C",[28],64.9%
same,"viability, T/C",[13],85.6%
same,"viability, T/C",[14],57.3%
same,"viability, T/C",[15],64.2%
same,"viability, T/C",[16],70.7%
same,"viability, T/C",[29],53.1%
same,"viability, T/C",[30],64.6%
same,"viability, T/C",[17],57.3%
same,"viability, T/C",[18],46.2%
same,"viability, T/C",[19],64.7%
same,"viability, T/C",[20],60%
same,"viability, T/C",[31],56%
same,"viability, T/C",[32],45%
same,"viability, T/C",[21],45.8%
same,"viability, T/C",[22],47.8%
same,"viability, T/C",[23],59.8%
same,"viability, T/C",[24],65.2%
Cn1ncnc1[C@H]1c2n[nH]c(=O)c3cc(F)cc(c23)N[C@@H]1c1ccc(F)cc1 + Cc1nc(NC(=O)N2CCCC2C(N)=O)sc1-c1ccnc(C(C)(C)C(F)(F)F)c1,IC50,second compound 0.0316 µM,> 100 nM
same,IC50,second compound 0.1 µM,> 100 nM
same,IC50,second compound 0.316 µM,> 100 nM
same,IC50,second compound 1 µM,> 100 nM
same,IC50,second compound 3.16 µM,> 100 nM
same,IC50,second compound 10 µM,> 100 nM
same,"viability, T/C","second compound 0.0316 µM, first compound 0.000316 µM",110%
same,"viability, T/C","second compound 0.0316 µM, first compound 0.001 µM",108%
same,"viability, T/C",[25],109%
same,"viability, T/C",[26],97.3%
same,"viability, T/C",[9],101%
same,"viability, T/C",[10],96.3%
same,"viability, T/C","second compound 0.1 µM, first compound 0.000316 µM",108%
same,"viability, T/C","second compound 0.1 µM, first compound 0.001 µM",99.2%
same,"viability, T/C",[27],106%
same,"viability, T/C",[28],100%
same,"viability, T/C",[13],102%
same,"viability, T/C",[14],97.6%
same,"viability, T/C","second compound 0.316 µM, first compound 0.000316 µM",96.5%
same,"viability, T/C","second compound 0.316 µM, first compound 0.001 µM",99%
same,"viability, T/C",[29],99.9%
same,"viability, T/C",[30],97.8%
same,"viability, T/C",[17],104%
same,"viability, T/C",[18],87.3%
same,"viability, T/C","second compound 1 µM, first compound 0.000316 µM",89.4%
same,"viability, T/C","second compound 1 µM, first compound 0.001 µM",98.1%
same,"viability, T/C",[31],95.2%
same,"viability, T/C",[32],90.7%
same,"viability, T/C",[21],101%
same,"viability, T/C",[22],91.9%
same,"viability, T/C","second compound 3.16 µM, first compound 0.000316 µM",85%
same,"viability, T/C","second compound 3.16 µM, first compound 0.001 µM",89.4%
same,"viability, T/C","second compound 3.16 µM, first compound 0.00316 µM",86.9%
same,"viability, T/C","second compound 3.16 µM, first compound 0.01 µM",86%
same,"viability, T/C","second compound 3.16 µM, first compound 0.0316 µM",91.6%
same,"viability, T/C","second compound 3.16 µM, first compound 0.1 µM",80.3%
same,"viability, T/C","second compound 10 µM, first compound 0.000316 µM",72.4%
same,"viability, T/C","second compound 10 µM, first compound 0.001 µM",73.1%
same,"viability, T/C","second compound 10 µM, first compound 0.00316 µM",75.7%
same,"viability, T/C","second compound 10 µM, first compound 0.01 µM",71.5%
same,"viability, T/C","second compound 10 µM, first compound 0.0316 µM",74.8%
same,"viability, T/C","second compound 10 µM, first compound 0.1 µM",70.2%

# Source: PubChem BioAssay AID1963961 (Molecular Pharmacology Branch, DTP, NCI, 2024)
